# Assay results: patent publication US20230364074A1, “Compounds and Compositions for Disrupting Programmed Ribosomal Frameshifting” (YALE UNIVERSITY, priority 2020, published 2023)
# Test system: SARS-CoV-2 FSE mutants
# Assay type: cell-based
compound,measurement,value
"CCNCC1CCN(c2c(F)cc3c(=O)c(C(=O)O)cn(CC)c3c2F)C1 (centres unmarked) [merafloxacin, 1-ethyl-7-[3-(ethylaminomethyl)pyrrolidin-1-yl]-6,8-difluoro-4-oxoquinoline-3-carboxylic acid]",frameshifting inhibition in structure-perturbing FSE mutants,significantly inhibited frameshifting in all variants
same,−1 PRF inhibition in naturally occurring FSE variants,inhibited −1 PRF in all variants with similar efficacy
